Measured values from US7977375B2, “Antibiotic and method of production thereof” (Helmholtz-Zentrum Für Infektionsforschung GmbH, priority 2004, dated 2011).
Converted amounts (≈) assume the structure as drawn.

Key:
[1] = system: B. cepacia SCV 141; assay: agar diffusion method, inhibition zone; format: cell-based, Burkholderia cepacia; settings: 18 hours at 37° C., per disk 10 μl crude extract, 50 μg macrolactin, 78 μg erythromycin, 10 μg ampicillin
Protocol: The agar diffusion method employing Mueller-Hinton (MH) agar (Difco Laboratories) was used to determine effectiveness against bacteria and yeasts. Sterile paper disks (Schleicher & Schüell, Germany) were seeded with 10 μl crude extract or with a solution of purified macrolactin (final compound concentration on the disk 50 μg) and then placed on the surface of MH-agar plates that had been seeded beforehand with a suspension of overnight culture of the test microorganisms at a concentration of 10^5 cells/ml.
The B. cepacia strain used, which is a clinical isolate from a cystic fibrosis patient, forms small colonies (SCV 141).

[2] = system: S. aureus # (non-methicillin-resistant reference strain); assay: MIC / MBC in liquid culture; format: cell-based, Staphylococcus aureus; settings: S. aureus #
[3] = system: Enterococcus faecium VRAR E315; assay: kinetics of growth at sub-MIC concentrations (FIG. 1D); format: cell-based; settings: E. faecium E315; 4 or 16 μg/ml; four hours following cultivation
Description: (§1) • FIG. 1A y-axis: Log CFU (Colony Forming Units) Cells/ml • x-axis: Time (HRS) • FIG. 1B y-axis: Log CFU (Colony Forming Units) Cells/ml • x-axis: Time (HRS) • FIG. 1C: y-axis: Log CFU (Colony Forming Units) Cells/ml • x-axis: Time (HRS) • FIG. 1D: y-axis: Log CFU (Colony Forming Units) Cells/ml • x-axis: Time (HRS) • FIG. 1E: y-axis: Log CFU (Colony Forming Units) Cells/ml • x-axis: Time (HRS) • FIG. 1F: y-axis: Log CFU (Colony Forming Units) Cells/ml • x-axis: Time (HRS) • FIG. 5A: y-axis: % Inhibition • x-axis Concentration μg/ml • FIG. 5B: y-axis: % Inhibition • x-axis Concentration μg/ml

[4] = system: Candida krusei DSMZ6128; assay: kinetics of growth (FIG. 1E); format: cell-based; settings: C. krusei; 128 μg/ml
Description: as §1

[5] = system: Burkholderia cepacia SCV 141; assay: kinetics of growth (FIG. 1F); format: cell-based; settings: B. cepacia SCV 141; 32 μg/ml
Description: as §1

[6] = system: E. faecium VRAR E315; assay: electron microscopy of cell division (FIG. 3); format: cell-based, Enterococcus faecium; settings: 16 μg/ml, 4 hours
Protocol: FIG. 3 a) to c) are electron microscope photographs of E. faecium VRAR E315 after 4 hours growth without antibiotic and d), e) and f) in the presence of 16 μg/ml 7-O-malonyl macrolactin A;
It is thought that 7-O-malonyl macrolactin A inhibits the division of bacterial cells, which interrupts the proliferation thereof.
The effect of 7-O-malonyl macrolactin A on cell division can also be observed from the electron microscope photographs of Enterococcus faecium (VRAR=vancomycin-resistant, ampicillin-resistant, E315, clinical isolate) shown in FIG. 3. The division planes of the untreated cells after 4 hours growth without antibiotic appear as light regions in FIGS. 3a), b) and c). […] In this example, however, no fully formed cell division planes are evident. The initiation of asymmetrical cell division is indicated by the small black arrowheads.

[7] = system: L929 mouse fibroblast cells; assay: inhibition of proliferation, CyQUANT cell proliferation test; format: cell-based; settings: Mus musculus, L929, 120 h, 5 days
Protocol: (§2) The cytotoxicity of 7-O-malonyl macrolactin A was compared to that of 7-O-succinyl macrolactin A and macrolactin A in vitro with respect to the inhibition of the proliferation of L929 mouse fibroblast cells or the human epithelial cell line HeLa.
(§3) For the cell culture, the HeLa cells were cultivated in low-glucose DMEM medium (Gibco), and the L929 cells in high-glucose DMEM medium. Both were supplemented with 10% by volume foetal calf serum (Gibco) at 37° C. in an atmosphere containing 5% CO2. The cells were extracted from stock cultures by means of trypsinization with EDTA (HeLa) or without EDTA (L929), then counted and diluted to 2×10^5 cells/ml. For the tests, microtitre plates (Nunc.) comprising 96 depressions were plated out in serial dilution without or in the presence of the test compounds or methanol. Determination of morphological alterations of the cells was carried out by means of phase contrast microscopy after 1, 2 and 5 days incubation.
(§4) After 5 days cultivation, cell counts were determined by the CyQUANT cell proliferation test (Molecular Probes), which is a highly sensitive microtitre plate test based on fluorescence. The test employs the dye CyQUANT, which, by binding to cellular nucleic acids, enhances fluorescence, which can then be measured by fluorescein excitation. The emission of fluorescence by the dye-nucleic acid complex correlated linearly with the cell count. For test purposes, the residue was carefully removed after 5 days incubation, the cells washed with PBS (phosphate buffered saline solution), the buffer removed and the cells frozen at −80° C. For the test, the cells were thawed at ambient temperature and lysated in a buffered solution containing the dye CyQUANT, in accordance with manufacturer's instructions. Fluorescence was measured by means of a fluormetric microtitre-plate reader (Titertex Fluorskan II) (excitation at 480 nm, emission at 520 nm). The […] were used to calculate the percentage of cellular proliferation in medium both alone and in the presence of serial dilutions of methanol and the macrolactin compounds. […] Proliferation was measured by means of the fluorescence-based test CyQUANT for determining viable cell counts. Table 5 illustrates the relative inhibition of proliferation as compared to a control culture comprising fresh medium without the addition of a macrolactin.

[8] = system: human epithelial cell line HeLa; assay: as above; format: cell-based
Protocol: as §2, §3, §4

[9] = system: bacteria, especially gram-positive bacteria; assay: bacteriostatic activity, general statement; format: cell-based; settings: very low concentrations
Protocol: 7-O-malonyl macrolactin A is antibiotically active against bacteria, especially gram-positive bacteria and is, in particular, advantageously bacteriostatic at very low concentrations, for example, in the region of 0.05-4 μg/ml. […] The bacteriostatic activity of 7-O-malonyl macrolactin A has already been observed at weak concentrations, as compared to the prior art macrolactin A, even where there has been no direct or immediate bactericidal effect at such low concentrations.

## CC1CCC/C=C/C=C/C(O)CC(O)C/C=C\C=C\C(OC(=O)CC(=O)O)C/C=C/C=C\C(=O)O1 (stereo not shown) [7-O-malonyl macrolactin A]
[1]; Burkholderia cepacia, SCV141, MH agar
  zone of inhibition at 50 µg/disc: 15 mm
[1]; MH agar
  Inhibition zone: produced an inhibition zone
[2]
  MIC (minimal inhibitory concentration): >128 µg/mL
[2]; Staphylococcus aureus, pronounced inhibition of growth, read-out: MBC (minimal bacteriostatic or fungistatic concentration)
  MBC: 1 µg/mL (≈ 2.05 µM)
[2]; Staphylococcus aureus, read-out: MIC (minimal inhibitory concentration)
  MIC: > 128 µg/mL
[3]
  effect on kinetics of growth: almost completely inhibited
[4]
  growth inhibited by a factor: ≤ 10
[5]
  growth inhibited by a factor: ≤ 10
[6]
  effect on cell division, electron microscope: anomalous, asymmetrical cell division is being initiated
[7]; compound concentration 3.9 μg/ml
  inhibition at 3.9 µg/mL: 0%
[7]; compound concentration 7.8 μg/ml
  inhibition at 7.8 µg/mL: 0%
[7]; compound concentration 15.6 μg/ml
  inhibition at 15.6 µg/mL: ~32%
[7]; compound concentration 31.25 μg/ml
  inhibition at 31.25 µg/mL: 80%
[7]; compound concentration 56.5 μg/ml
  inhibition at 56.5 µg/mL: 86%
[7]; compound concentration 125 μg/ml
  inhibition at 125 µg/mL: 84%
[8]; 62.5 μg/ml, CyQUANT test
  Inhibition of proliferation: practically complete inhibition of growth
[8]; Homo sapiens, 120 h, compound concentration 3.9 μg/ml, 5 days
  inhibition at 3.9 µg/mL: 0%
[8]; Homo sapiens, 120 h, compound concentration 7.8 μg/ml, 5 days
  inhibition at 7.8 µg/mL: 0%
[8]; Homo sapiens, 120 h, compound concentration 15.6 μg/ml, 5 days
  inhibition at 15.6 µg/mL: 0%
[8]; Homo sapiens, 120 h, compound concentration 31.25 μg/ml, 5 days
  inhibition at 31.25 µg/mL: 62%
[8]; Homo sapiens, 120 h, compound concentration 56.5 μg/ml, 5 days
  inhibition at 56.5 µg/mL: 93%
[8]; Homo sapiens, 120 h, compound concentration 125 μg/ml, 5 days
  inhibition at 125 µg/mL: 100%
[8]; compound concentration 15.6 μg/ml, 5 days
  Inhibition of proliferation: failed to inhibit the proliferation
[8]; compound concentration 31.25 μg/ml, 5 days
  Inhibition of proliferation: capable of inhibiting the proliferation
[9]
  bacteriostatic concentration: 0.05 to 4 µg/mL
